Laboratory results reported in US20230348487A1, “2-AMINOPYRIMIDINE COMPOUND AND PHARMACEUTICAL COMPOSITION THEREOF AND APPLICATION THEREOF” (GUANGZHOU SALUSTIER BIOSCIENCES CO., LTD., priority 2021, published 2023).
“And” between values parts separate entries of the source, which are not always exact repeats. Equal entries are not always repeated. Where two headings read alike, the source gives them in different places. Each block holds one compound with its values, some of them ahead of it.

Legend:
[1] = system: human T lymphocyte leukemia cell line HuT78; test: CCK-8 in vitro proliferation inhibition; type: cell-based; conditions: read-out: Inhibitory activity (IC50) on cell proliferation, HUT78
Protocol: (§1) Cell lines: human chronic myeloid leukemia cell line K562, human acute myeloid leukemia cell line U937, human T lymphocyte leukemia cell line HuT78, and human T lymphoblastic lymphoma cell line Jurkat. Cells were purchased from the Chinese Academy of Sciences Stem Cell Bank or ATCC.
(§2) […] were cultured overnight and suspended cells were directly stimulated with drugs. […] Two repeats were set for each concentration, with a final volume of 200 μL. […] The absorbance values at 450 nm and 650 nm were measured using a microplate reader, and the increment Z (A450-A650) was derived. The inhibitory rate of drugs on cell growth was calculated by GraphPad Prism 8.0.0 through the following formula:
(§3) Inhibition rate (%)(ODcontrol−ODdosing)/ODcontrol×100%
(§4) The half inhibitory concentration (IC50) was calculated. Every experiment was repeated at least three times.

[2] = system: human T lymphoblastic lymphoma cell line Jurkat; test: CCK-8 in vitro proliferation inhibition; type: cell-based; conditions: 72 hours, read-out: Inhibitory activity (IC50) on cell proliferation, JURKAT
Protocol: as §1, §2, §3, §4

[3] = system: human acute myeloid leukemia cell line U937; test: CCK-8 in vitro proliferation inhibition; type: cell-based; conditions: read-out: Inhibitory activity (IC50) on cell proliferation, U937
Protocol: as §1, §2, §3, §4

[4] = system: human chronic myeloid leukemia cell line K562; test: CCK-8 in vitro proliferation inhibition; type: cell-based; conditions: read-out: Inhibitory activity (IC50) on cell proliferation, K562
Protocol: as §1, §2, §3, §4

[5] = target: TYK2 (Homo sapiens (Human), UniProt P29597); test: Z′-Lyte kinase inhibitory activity test; type: biochemical; conditions: ATP concentration Km
Protocol: (§5) Test method: Firstly, test compounds were prepared into 10 mM stock solution with DMSO, and continuously diluted into 10 concentrations at a 3-fold gradient for later use. 5X reaction buffer was diluted with deionized water into 1×reaction buffer (50 mM HEPES pH 7.5, 0.01% Brij-35, 10 mM MgCl2, 1 mM EGTA), which was used to prepare a mixture of kinase and peptide substrate, as well as a phosphorylated peptide substrate solution. The kinase concentration was determined based on enzyme titration, and the final concentration of peptide substrate and phosphorylated peptide substrate was 2 μM. 5 μL of mixture substrate of kinase and peptide substrate was added to each well on the 384 well plate. Then 5 nL of the test compound (starting with a final concentration of 10 μM) was added with an Echo520 Sampler. […] An additional 100% phosphorylation well (5 μL phosphorylated peptide substrate solution), a 0% phosphorylated well (5 μL of a mixture of kinase and peptide substrate, without test compounds and ATP), and a 0% inhibitory well (5 μL of a mixture of kinase and peptide substrate and appropriate concentration of ATP) were set as control. Two repeats were set for each concentration. The above reaction system was incubated at 30° C. for 1.5 hours. […] 2.5 μL of the diluted mixture was added to each well and the system was incubated at 30° C. for another 1 hour. […] The substrate phosphorylation rate was obtained by calculating the ratio, and the activity of the kinase and the effect of the inhibitor on the kinase was further calculated. Every experiment was repeated at least three times.

[6] = target: JAK2 (Homo sapiens (Human), UniProt O60674); test: Z′-Lyte kinase inhibitory activity test; type: biochemical
Protocol: as §5

[7] = target: JAK1 (Homo sapiens (Human), UniProt P23458); test: Z′-Lyte kinase inhibitory activity test; type: biochemical; conditions: ATP concentration Km
Protocol: as §5

[8] = target: JAK3 (Homo sapiens (Human), UniProt P52333); test: Z′-Lyte kinase inhibitory activity test; type: biochemical
Protocol: as §5

[9] = system: other subtypes (JAK family); conditions: 1 mM ATP concentration; read-out: IC50 of the kinase, other subtypes; cited from earlier work
[10] = Rat liver microsomes stability test; type: in vitro ADME; conditions: for Remaining percentage: rat liver microsomes, average value
Protocol: Firstly, preheated 0.1 M potassium phosphate buffer with 5 mM MgCl2 (i.e. K/Mg buffer) at pH 7.4±0.1. Prepared the spiked solution for the tested compound and reference compound (500 μM spiked solution: added 5 μL of 10 mM stock solution into 95 μL of acetonitrile; 1.5 μM microsomal spiked solution (0.75 mg/mL): added 1.5 μL of 500 μM spiked solution and 18.75 μL of 20 mg/mL liver microsomes into 479.75 μL of K/Mg buffer). Then NADPH was dissolved in buffer K to prepare a 6 mM, 5 mg/mL NADPH stock solution. At different time points (0-, 5-, 15-, 30-, 45 minutes), 30 μL of 1.5 μM spiked solution containing 0.75 mg/mL of microsome solution was distributed onto the designated detection plate. At 0 min, 150 μL of acetonitrile containing internal standard (IS) was added to the 0 min plate well, followed by 15 μL of NADPH stock solution (6 mM). Then, all plates were pre-incubated at 37° C. for 5 minutes, added 15 μL of NADPH stock solution (6 mM), the reaction was initiated and timed. At 5 minutes, 15 minutes, 30 minutes, and 45 minutes, added 150 μL of acetonitrile solution containing IS to the corresponding wells to stop the reaction. After quenching, the plate was shaken for 10 minutes (600 rpm/min), followed by centrifugation at 6000 rpm/min for 15 minutes. 80 μL of supernatant of each well were transferred into a 96-well sample plate containing 140 μL of ultrapure water to perform LC/MS analysis. The analysis of biological samples and all samples were completed by the analysis laboratory of Medicipia Pharmaceutical Technology (Shanghai) Co., Ltd.

JAK3, sequence (P52333 whole entry): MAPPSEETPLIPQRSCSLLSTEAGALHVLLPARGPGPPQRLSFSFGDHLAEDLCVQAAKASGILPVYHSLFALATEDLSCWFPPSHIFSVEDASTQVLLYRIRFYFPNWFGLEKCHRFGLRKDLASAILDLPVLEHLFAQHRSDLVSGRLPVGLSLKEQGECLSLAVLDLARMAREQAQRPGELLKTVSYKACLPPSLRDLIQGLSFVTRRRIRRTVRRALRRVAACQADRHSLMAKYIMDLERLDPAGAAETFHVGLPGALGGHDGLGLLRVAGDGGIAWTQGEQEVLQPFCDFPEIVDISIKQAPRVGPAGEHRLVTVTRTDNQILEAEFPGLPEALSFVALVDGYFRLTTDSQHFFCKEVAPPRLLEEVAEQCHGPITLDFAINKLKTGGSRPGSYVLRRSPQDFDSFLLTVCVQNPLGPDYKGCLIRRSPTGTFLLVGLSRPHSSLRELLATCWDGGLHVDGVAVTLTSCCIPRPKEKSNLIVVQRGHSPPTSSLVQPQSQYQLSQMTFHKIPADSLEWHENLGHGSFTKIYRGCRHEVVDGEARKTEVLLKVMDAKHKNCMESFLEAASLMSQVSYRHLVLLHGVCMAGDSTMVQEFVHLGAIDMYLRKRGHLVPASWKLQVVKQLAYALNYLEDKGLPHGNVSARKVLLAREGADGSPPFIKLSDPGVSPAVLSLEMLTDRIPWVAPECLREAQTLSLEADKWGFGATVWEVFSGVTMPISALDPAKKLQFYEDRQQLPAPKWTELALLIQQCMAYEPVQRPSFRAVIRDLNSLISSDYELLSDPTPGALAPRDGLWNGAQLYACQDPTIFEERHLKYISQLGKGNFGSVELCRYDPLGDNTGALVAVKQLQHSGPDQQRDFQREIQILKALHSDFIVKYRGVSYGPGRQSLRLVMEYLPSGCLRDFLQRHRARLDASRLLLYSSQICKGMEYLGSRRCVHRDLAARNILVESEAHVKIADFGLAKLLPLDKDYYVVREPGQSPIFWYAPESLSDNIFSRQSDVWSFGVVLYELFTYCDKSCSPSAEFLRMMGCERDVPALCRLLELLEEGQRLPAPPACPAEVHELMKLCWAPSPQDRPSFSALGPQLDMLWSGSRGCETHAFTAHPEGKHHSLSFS
JAK2, sequence (O60674 whole entry): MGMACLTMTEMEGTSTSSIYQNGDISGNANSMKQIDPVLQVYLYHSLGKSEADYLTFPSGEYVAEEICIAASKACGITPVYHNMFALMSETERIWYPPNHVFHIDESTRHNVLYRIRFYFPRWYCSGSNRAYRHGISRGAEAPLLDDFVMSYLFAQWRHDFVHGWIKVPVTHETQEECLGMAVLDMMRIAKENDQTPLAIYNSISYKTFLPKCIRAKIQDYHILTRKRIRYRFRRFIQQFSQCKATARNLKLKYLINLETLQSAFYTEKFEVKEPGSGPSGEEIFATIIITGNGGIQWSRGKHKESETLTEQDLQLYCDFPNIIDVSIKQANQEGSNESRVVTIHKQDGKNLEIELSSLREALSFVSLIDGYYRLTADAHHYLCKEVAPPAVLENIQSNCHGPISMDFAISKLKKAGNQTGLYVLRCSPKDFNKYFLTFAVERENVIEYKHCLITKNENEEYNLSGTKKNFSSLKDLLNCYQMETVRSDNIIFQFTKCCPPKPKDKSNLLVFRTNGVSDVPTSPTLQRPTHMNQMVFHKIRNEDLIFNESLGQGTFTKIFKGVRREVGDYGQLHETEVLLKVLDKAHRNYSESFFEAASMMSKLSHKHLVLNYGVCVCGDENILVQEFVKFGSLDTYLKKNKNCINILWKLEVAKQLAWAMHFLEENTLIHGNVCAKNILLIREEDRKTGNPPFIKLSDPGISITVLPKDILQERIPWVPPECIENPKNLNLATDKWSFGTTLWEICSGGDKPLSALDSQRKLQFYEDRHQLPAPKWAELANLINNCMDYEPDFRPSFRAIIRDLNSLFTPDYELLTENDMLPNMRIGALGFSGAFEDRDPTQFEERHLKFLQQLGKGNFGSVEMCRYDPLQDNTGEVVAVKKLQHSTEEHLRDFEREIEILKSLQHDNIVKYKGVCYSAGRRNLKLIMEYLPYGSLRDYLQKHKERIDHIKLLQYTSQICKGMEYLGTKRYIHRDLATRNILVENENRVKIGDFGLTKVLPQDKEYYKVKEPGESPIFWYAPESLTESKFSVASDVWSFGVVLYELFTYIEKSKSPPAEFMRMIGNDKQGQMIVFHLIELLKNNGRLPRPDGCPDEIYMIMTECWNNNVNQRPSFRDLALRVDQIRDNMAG
JAK1, sequence (P23458 whole entry): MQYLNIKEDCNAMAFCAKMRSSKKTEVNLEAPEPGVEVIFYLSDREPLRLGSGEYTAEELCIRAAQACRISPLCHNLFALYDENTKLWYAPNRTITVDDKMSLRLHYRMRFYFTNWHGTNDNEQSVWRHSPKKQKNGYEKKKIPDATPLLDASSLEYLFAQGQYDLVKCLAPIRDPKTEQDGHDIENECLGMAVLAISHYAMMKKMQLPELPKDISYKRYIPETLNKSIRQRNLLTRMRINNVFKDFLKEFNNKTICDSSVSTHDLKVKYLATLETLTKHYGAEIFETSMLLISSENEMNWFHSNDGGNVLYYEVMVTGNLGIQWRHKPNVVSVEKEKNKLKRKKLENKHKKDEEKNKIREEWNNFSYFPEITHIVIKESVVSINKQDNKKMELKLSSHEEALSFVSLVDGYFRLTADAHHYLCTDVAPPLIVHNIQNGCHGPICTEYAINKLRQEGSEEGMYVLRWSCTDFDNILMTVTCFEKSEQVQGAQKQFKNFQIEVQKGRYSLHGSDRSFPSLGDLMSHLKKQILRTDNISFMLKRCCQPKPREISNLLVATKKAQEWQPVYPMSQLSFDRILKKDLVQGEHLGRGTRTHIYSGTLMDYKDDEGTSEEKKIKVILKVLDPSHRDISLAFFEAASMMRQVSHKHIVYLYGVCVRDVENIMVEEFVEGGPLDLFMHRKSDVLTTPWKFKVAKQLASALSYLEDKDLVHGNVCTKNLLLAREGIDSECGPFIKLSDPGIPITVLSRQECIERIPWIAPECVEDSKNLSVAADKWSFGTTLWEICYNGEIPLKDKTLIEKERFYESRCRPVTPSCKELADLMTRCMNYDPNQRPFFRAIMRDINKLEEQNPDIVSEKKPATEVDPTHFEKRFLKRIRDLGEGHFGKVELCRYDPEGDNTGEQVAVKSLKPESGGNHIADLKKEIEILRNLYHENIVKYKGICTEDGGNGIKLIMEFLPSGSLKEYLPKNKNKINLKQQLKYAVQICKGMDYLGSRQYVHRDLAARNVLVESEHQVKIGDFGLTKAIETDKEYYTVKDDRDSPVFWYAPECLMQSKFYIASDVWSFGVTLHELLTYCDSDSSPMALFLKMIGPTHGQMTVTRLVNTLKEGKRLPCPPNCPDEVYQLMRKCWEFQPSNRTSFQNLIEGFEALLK
TYK2, sequence (P29597 whole entry): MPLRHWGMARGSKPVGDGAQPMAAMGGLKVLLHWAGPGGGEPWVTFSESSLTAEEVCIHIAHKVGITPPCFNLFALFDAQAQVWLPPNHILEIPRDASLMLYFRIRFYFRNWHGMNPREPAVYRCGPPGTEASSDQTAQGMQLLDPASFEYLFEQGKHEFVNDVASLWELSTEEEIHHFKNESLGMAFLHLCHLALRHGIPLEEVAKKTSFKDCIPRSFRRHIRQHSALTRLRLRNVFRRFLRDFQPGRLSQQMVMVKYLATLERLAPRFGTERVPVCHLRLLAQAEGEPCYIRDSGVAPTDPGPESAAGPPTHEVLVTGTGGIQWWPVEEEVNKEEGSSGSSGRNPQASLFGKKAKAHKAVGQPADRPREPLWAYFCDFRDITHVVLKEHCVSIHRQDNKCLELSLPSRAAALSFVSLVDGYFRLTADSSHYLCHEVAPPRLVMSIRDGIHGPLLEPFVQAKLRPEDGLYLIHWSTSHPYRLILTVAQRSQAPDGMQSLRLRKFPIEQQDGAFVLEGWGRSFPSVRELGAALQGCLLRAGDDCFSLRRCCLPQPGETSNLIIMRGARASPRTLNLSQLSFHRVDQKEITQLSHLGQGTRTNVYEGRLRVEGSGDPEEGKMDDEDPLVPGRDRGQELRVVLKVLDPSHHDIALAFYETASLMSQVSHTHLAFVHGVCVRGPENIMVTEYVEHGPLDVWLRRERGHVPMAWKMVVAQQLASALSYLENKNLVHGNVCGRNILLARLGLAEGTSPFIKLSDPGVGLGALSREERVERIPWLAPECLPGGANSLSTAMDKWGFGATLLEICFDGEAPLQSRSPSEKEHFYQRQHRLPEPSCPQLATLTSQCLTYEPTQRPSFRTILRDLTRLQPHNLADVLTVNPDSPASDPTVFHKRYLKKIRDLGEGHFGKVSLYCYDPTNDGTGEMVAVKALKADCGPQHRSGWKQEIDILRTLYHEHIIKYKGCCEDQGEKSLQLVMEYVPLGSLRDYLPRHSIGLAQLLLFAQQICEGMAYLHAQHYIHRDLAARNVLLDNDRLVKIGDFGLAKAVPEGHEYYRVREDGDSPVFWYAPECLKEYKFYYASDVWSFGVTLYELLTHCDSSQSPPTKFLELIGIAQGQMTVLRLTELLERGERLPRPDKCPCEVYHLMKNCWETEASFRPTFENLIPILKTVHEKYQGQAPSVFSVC

IC50 ([1]; Homo sapiens, HuT78, 72 hours): 717 nM
IC50 ([2]; Homo sapiens, Jurkat): 346 nM
IC50 ([3]; Homo sapiens, U-937, 72 hours): 34 nM
IC50 ([4]; Homo sapiens, K562, 72 hours): 2410 nM
IC50 [5]: 188 nM
IC50 ([6]; ATP concentration Km): 524 nM
IC50 [7]: 800 nM
IC50 ([8]; ATP concentration 1 mM): 1.59 nM
IC50 ([8]; ATP concentration Km): 1.56 nM
Structure (SMILES): C=CC(=O)Nc1cc(Nc2ncc(Cl)c(O[C@@H]3CO[C@H]4[C@@H]3OC[C@H]4O)n2)ccc1N1C[C@H]2C[C@@H]1CN2C [LS 5-154]
JAK3 kinase inhibitory activity and selectivity (in words) ([8]; summary of Table 3, activity maintained at ATP 1 mM): strong and selective JAK3 kinase inhibitory activity

Structure (SMILES): C=CC(=O)Nc1cc(Nc2ncc(Cl)c(O[C@@H]3CO[C@H]4[C@@H]3OC[C@H]4OC)n2)ccc1N1CCC(N2CCN(C)CC2)CC1 [LS 6-16]
IC50 ([1]; 72 hours): 121 nM
IC50 [2]: 136 nM
IC50 ([3]; 72 hours): 24 nM
IC50 ([4]; 72 hours): 191 nM
IC50 [5]: 906 nM
IC50 [6]: 967 nM
IC50 [7]: 533 nM
IC50 [8]: 8.12 nM and 12.5 nM

IC50 ([1]; 72 hours): > 30000 nM
IC50 [2]: > 30000 nM
IC50 ([3]; 72 hours): 19.5 nM
IC50 ([4]; 72 hours): > 30000 nM
Structure (SMILES): C=CC(=O)N1C[C@H](Nc2ncnc3[nH]ccc23)CC[C@@H]1C [PF-06651600, reference compound]
IC50 [9]: > 10000 nM

Remaining percentage ([10]; 0 min): 100.00%
Remaining percentage ([10]; 5 min): 75.87%
Remaining percentage ([10]; 15 min): 42.60%
Remaining percentage ([10]; 30 min): 29.98%
Remaining percentage ([10]; 45 min): 17.88%
CLint scaled at 1 µM ([10]; rat, liver microsomes, pH 7.4, rat liver microsomes, read-out: Clint): 133 mL/min/kg
half-life at 1 µM ([10]; rat, liver microsomes, pH 7.4, rat liver microsomes, read-out: T1/2): 18.7 min
Structure (SMILES): O=C(c1ccc(F)cc1)C1CCN(CCn2c(=O)[nH]c3ccccc3c2=O)CC1 [ketanserin, reference compound]
